Measurements from publication PMC12610573, “New Chlormequat-Based Ionic Liquids as Plant Resistance Inducers” (Molecules, 2025).
Read-outs that look alike come from different tables or passages of the source.

Legend:
[1] = test system: radish (Raphanus sativus) sprouts; experiment: Phytotoxicity test on radish sprouts; type: in vivo; conditions: for Reduction in Sprout Mass: compared with untreated control; for Mass of 25 Sprouts: radish, 5 days, UTC 3.09 g
Experimental: Twenty five seeds of radish (Raphanus sativus) were placed on a filter tissue in a Petri dish. […] Then, sprouts were weighted. All variants of treatment were tested together, with 3 replications (plates) in each of 2 cycles performed. Results were subjected to statistical analysis as described in Section 4.8.
(§1) Statistical significance of the effect of the treatments of plants with tested compounds on the phytotoxicity and SAR induction was assessed with the ANOVA test performed using the Statistica program StatSoft with software version 9.1 (StatSoft Sp. z o.o., Kraków, Poland). The statistical assumptions of normality and homogeneity of variances were verified prior to conducting the ANOVA tests. Differences between the means were estimated with Tukey’s HSD test at the significance level of p = 0.05.

[2] = Solubility tests in representative solvents (Vogel protocol); conditions: 25 °C; for solubility: thermodynamic from solid
Experimental: The solubilities of the prepared ILs in ten representative solvents were determined according to the protocols from Vogel’s Textbook of Practical Organic Chemistry. The solvents chosen for the study were arranged in order of descending value of their Snyder polarity index: water—9.0, methanol—6.6, acetone—5.1, isopropanol—4.3, toluene—2.3, and hexane—0.0.

[3] = Thermogravimetric analysis (TGA), thermal stability; conditions: TGA under nitrogen, 10 °C/min; for Thermal Stability T5%onset: 5% weight loss onset; for Thermal Stability Tonset: decomposition onset
Experimental: TGA was performed on a TGA Q50 (Texas Instruments, Dallas, TX, USA) under nitrogen. Samples (5–10 mg) were heated from 25 °C to 500 °C at 10 °C/min with an isothermal step at 85 °C for 10 min. T5%onset and Tonset values were recorded.

[4] = test system: Tobamovirus tabaci (tobacco mosaic virus, TMV) on Nicotiana tabacum cv. Xanthi; experiment: SAR induction assay: necrotic area after TMV inoculation of sprayed tobacco; type: in vivo; conditions: for SAR Induction (percentage of necrotic area on leaves): TMV inoculation after 7 days, read 7 days later, UTC 34.54; for Percentage of necrotic spot coverage (leaf shown in supplementary figure): single leaf image; for pest or weed control at 125 µg/mL / pest or weed control at 250 µg/mL: topical, read-out: Reduction in Necrotic Area
Experimental: Plants of Nicotiana tabacum cv. Xanthi were grown under greenhouse conditions at 25 °C and 50% relative humidity, under natural daylight during the May–August growing season, with a natural photoperiod. The plants were sprayed with solutions containing the tested compounds.
In all experiments, the TMV SL-1 isolate Tobamovirus (TMV) was used. To obtain a viral inoculum, Nicotiana tabacum cv. Samsun plants were sap-inoculated with previously virus-infected plant material. After the appearance of disease symptoms on the infected plants (leaf mosaic), the virus was isolated by sucrose density gradient centrifugation with 0.01 M Tris-HCl, pH 7.0, to prepare the infectious inoculum. The concentration of virus in the obtained preparation was determined spectrophotometrically. The samples of TMV were stored at −20 °C until use.
The tested active substances at a given concentration were sprayed on tobacco plants with three fully developed leaves. The volume of working solution used was equal to 10 mL per plant. The compounds were dissolved in a water/propylene glycol solution (95/5, v/v). The plants of the untreated control variant were sprayed with a water/propylene glycol solution (95/5, v/v) that was used for the preparation of solutions of the tested compounds. After seven days, the plants were mechanically inoculated using purified viral preparations (0.01 ng/mL as described in [34]).
The plants were inoculated with the TMV inoculum at a concentration of 3.8 × 10^−4 ng per leaf. For each variant of treatment, 3 plants were sprayed, and 3 leaves of each plant were analyzed. The entire experiment was performed in 2 replicates. Necrotic areas on the leaves were determined using ImageJ software.
The surface of a leaf or an area with necrotic spots is represented by a set of pixels in the image, which are counted by the program. Reduction in necrotic area (ISAR) is expressed by the following formula:(1) ISAR=100−(At/Ac∗100) where At is the ratio of the area of necrotic spots caused by viral infection that appeared on the leaf treated with the test substance to the whole area of the leaf; Ac is the ratio of the area of the necrotic spots caused by viral infection that appeared on the leaf of the control plant to the whole area of the leaf.
as §1

[5] = organic solvent or mixture, Solubility in Acetone, Snyder polarity index 5.1
[6] = organic solvent or mixture, Solubility in Hexane, Snyder polarity index 0.0
[7] = organic solvent or mixture, Solubility in Isopropanol, Snyder polarity index 4.3
[8] = organic solvent or mixture, Solubility in Methanol, Snyder polarity index 6.6
[9] = organic solvent or mixture, Solubility in Toluene, Snyder polarity index 2.3
[10] = water, Solubility in Water, Snyder polarity index 9.0
[11] = 125 mg/L, compared with untreated control plants
[12] = 250 mg/L, compared with untreated control plants

## C[N+](C)(C)CCCl [[CC][Cl], Chlormequat chloride, reference compound]
[1]; 125 mg/L
  Reduction in Sprout Mass: 24.00%
  Mass of 25 Sprouts: 2.35 def B g
[1]; 250 mg/L
  Mass of 25 Sprouts: 2.08 fgh A
[2]
  Solubility in Isopropanol: remained insoluble
[2]; [5]
  solubility: < 33.3 mg/mL
[2]; [6]
  solubility: < 33.3 mg/mL
[2]; [7]
  solubility: < 33.3 mg/mL
[2]; [8]
  solubility: > 100 mg/mL
[2]; [9]
  solubility: < 33.3 mg/mL
[2]; [10]
  solubility: > 100 mg/mL
[3]
  Thermal Stability T5%onset: 255.0 °C
  Thermal Stability Tonset: 259.8 °C

## O=C(O)c1cc(Cl)ccc1O [5-chlorosalicylic acid]
[1]; 125 mg/L
  Reduction in Sprout Mass: 37.16%
  Mass of 25 Sprouts: 1.94 abc B g
[1]; 250 mg/L
  Reduction in Sprout Mass: 59.87%
  Mass of 25 Sprouts: 1.24 cd A g
[4]; 125 mg/L spray
  SAR Induction (percentage of necrotic area on leaves): 4.23 a B %
[4]; 125 mg/L
  Percentage of necrotic spot coverage (leaf shown in supplementary figure): 2.98%
[4]; 250 mg/L spray
  SAR Induction (percentage of necrotic area on leaves): 3.28 ab AB %
[4]; 250 mg/L
  Percentage of necrotic spot coverage (leaf shown in supplementary figure): 1.28%
[4]; [11]
  pest or weed control at 125 µg/mL: 87.8%
[4]; [12]
  pest or weed control at 250 µg/mL: 90.5%

## C[N+](C)(C)CCCl.O=C([O-])c1ccccc1O [[CC][Sal], chlormequat salicylate]
[1]; 125 mg/L
  Reduction in Sprout Mass: 8.79%
  Mass of 25 Sprouts: 2.82 hi C g
[1]; 250 mg/L
  Reduction in Sprout Mass: 26.91%
  Mass of 25 Sprouts: 2.26 hi B g
[4]; 125 mg/L spray
  SAR Induction (percentage of necrotic area on leaves): 19.99 de B %
[4]; 250 mg/L spray
  SAR Induction (percentage of necrotic area on leaves): 12.39 ef A %
[4]
  pest or weed control at 125 µg/mL: 42.1%
  pest or weed control at 250 µg/mL: 64.1%
[2]; [5]
  solubility: < 33.3 mg/mL
[2]; [6]
  solubility: < 33.3 mg/mL
[2]; [7]
  solubility: 33.3 to 100 mg/mL
[2]; [8]
  solubility: > 100 mg/mL
[2]; [9]
  solubility: < 33.3 mg/mL
[2]; water, Solubility (water)
  solubility: > 100 mg/mL
[2]; [10]
  solubility: > 100 mg/mL
[3]
  Thermal Stability T5%onset: 186.1 °C
  Thermal Stability Tonset: 93.3 °C

## C[N+](C)(C)CCCl.O=C([O-])c1ccncc1 [[CC][IsoNic]]
[1]; 125 mg/L
  Reduction in Sprout Mass: 15.70%
  Mass of 25 Sprouts: 2.60 fgh C
[1]; 250 mg/L
  Reduction in Sprout Mass: 35.65%
  Mass of 25 Sprouts: 1.99 efg AB
[4]; 125 mg/L spray
  SAR Induction (percentage of necrotic area on leaves): 24.51 ef A %
[4]; [11]
  Reduction in Necrotic Area: 29.0%
[4]; 250 mg/L spray
  SAR Induction (percentage of necrotic area on leaves): 21.48 g A %
[4]; [12]
  Reduction in Necrotic Area: 37.8%
[3]
  Thermal Stability T5%onset: 164.3 °C
  Thermal Stability Tonset: 85.3 °C

## O=C(O)c1cccc(Cl)c1O [3-chlorosalicylic acid]
[1]; 125 mg/L
  Reduction in Sprout Mass: 47.03%
  Mass of 25 Sprouts: 1.64 a B g
[1]; 250 mg/L
  Reduction in Sprout Mass: 72.65%
  Mass of 25 Sprouts: 0.85 a A g
[4]; 125 mg/L spray
  SAR Induction (percentage of necrotic area on leaves): 4.95 a B %
[4]; 125 mg/L
  Percentage of necrotic spot coverage (leaf shown in supplementary figure): 2.62%
[4]; 250 mg/L spray
  SAR Induction (percentage of necrotic area on leaves): 2.59 a AB %
[4]; 250 mg/L
  Percentage of necrotic spot coverage (leaf shown in supplementary figure): 2.30%
[4]; [11]
  pest or weed control at 125 µg/mL: 85.7%
[4]; [12]
  pest or weed control at 250 µg/mL: 92.5%

## O=C(O)c1ccc(Cl)cc1O [4-chlorosalicylic acid]
[1]; 125 mg/L
  Reduction in Sprout Mass: 46.55%
  Mass of 25 Sprouts: 1.65 a B g
[1]; 250 mg/L
  Reduction in Sprout Mass: 68.45%
  Mass of 25 Sprouts: 0.98 ab A g
[4]; 125 mg/L spray
  SAR Induction (percentage of necrotic area on leaves): 17.06 cd C %
[4]; 250 mg/L spray
  SAR Induction (percentage of necrotic area on leaves): 8.68 cde AB %
[4]; [11]
  pest or weed control at 125 µg/mL: 50.6%
[4]; [12]
  pest or weed control at 250 µg/mL: 74.9%
